Source: US9115092B2, “Substituted quinazoline and pyrido-pyrimidine derivatives” (Asana Biosciences, LLC, priority 2010, dated 2015)

Key:
mTOR kinase = molecular target: T1, mTOR kinase (Homo sapiens, UniProt P42345); experiment: mTOR kinase TR-FRET assay; format: biochemical; settings: read-out: mTO R
T1 construct: purchased Millipore, USA
Outline: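 TR-FRET read-out (340 nm excitation, 615/665 nm emission) of Thr389 phosphorylation of a ULight-labeled p70 S6K peptide (50 nM) by mTOR, 20 μM ATP, 60 min room temperature after 60 min compound preincubation. Buffer HEPES pH 7.5 with MnCl2, EGTA; IC50 by sigmoidal dose-response.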

PC3 cells = experiment: XTT assay for cell viability, PC3 cells; format: cell-based, human; settings: Homo sapiens, PC-3, cell viability
Description: Using a commercial kit from Sigma Aldrich (Catalog #X34251) and following its protocol, PC3 cells in the log phase of growth were employed and seeded at an optimal density of 1000 cell/well on to 96 well plates and incubated for 24 h followed by the addition of compounds of formula (I) in serial dilutions. Compound dilutions were made in DMSO. The cells were incubated with the compounds of formula (I) for 96 h and XTT tetrazolium dye (Sigma, USA) was subsequently added and incubated at 37° C. After the color formation, absorbance was measured at 465 nm in a Spectramax® Gemini spectrophotometer. EC50 values were calculated using a sigmoidal dose response curve fit in GraphPad Prism® v5 software. The tested compounds of formula (I) which caused inhibition of PC3 cell proliferation as determined by this assay protocol are shown in Table 2.

[1] = molecular target: T2, PI3Kα (wild-type), P110/P85α (Homo sapiens, UniProt P42336); experiment: PI3 Kinase TR-FRET assay, PI3Kα (wild-type); format: biochemical
T2 construct: made in house; host or cells: SF9 insect cells
Outline: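 TR-FRET read-out of PIP3 formation via biotin-PIP3 displacement (665/615 nm ratio) gave IC50 curves. Enzyme: 5 ng wild-type P110/P85α from Sf9 cells, 60 min RT with compound and PIP2 (MgCl2 40 mM, DTT 5 mM), then 30 min RT kinase reaction at 10 μM ATP and 10 μM PIP2.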

T2 sequence (P42336 whole entry): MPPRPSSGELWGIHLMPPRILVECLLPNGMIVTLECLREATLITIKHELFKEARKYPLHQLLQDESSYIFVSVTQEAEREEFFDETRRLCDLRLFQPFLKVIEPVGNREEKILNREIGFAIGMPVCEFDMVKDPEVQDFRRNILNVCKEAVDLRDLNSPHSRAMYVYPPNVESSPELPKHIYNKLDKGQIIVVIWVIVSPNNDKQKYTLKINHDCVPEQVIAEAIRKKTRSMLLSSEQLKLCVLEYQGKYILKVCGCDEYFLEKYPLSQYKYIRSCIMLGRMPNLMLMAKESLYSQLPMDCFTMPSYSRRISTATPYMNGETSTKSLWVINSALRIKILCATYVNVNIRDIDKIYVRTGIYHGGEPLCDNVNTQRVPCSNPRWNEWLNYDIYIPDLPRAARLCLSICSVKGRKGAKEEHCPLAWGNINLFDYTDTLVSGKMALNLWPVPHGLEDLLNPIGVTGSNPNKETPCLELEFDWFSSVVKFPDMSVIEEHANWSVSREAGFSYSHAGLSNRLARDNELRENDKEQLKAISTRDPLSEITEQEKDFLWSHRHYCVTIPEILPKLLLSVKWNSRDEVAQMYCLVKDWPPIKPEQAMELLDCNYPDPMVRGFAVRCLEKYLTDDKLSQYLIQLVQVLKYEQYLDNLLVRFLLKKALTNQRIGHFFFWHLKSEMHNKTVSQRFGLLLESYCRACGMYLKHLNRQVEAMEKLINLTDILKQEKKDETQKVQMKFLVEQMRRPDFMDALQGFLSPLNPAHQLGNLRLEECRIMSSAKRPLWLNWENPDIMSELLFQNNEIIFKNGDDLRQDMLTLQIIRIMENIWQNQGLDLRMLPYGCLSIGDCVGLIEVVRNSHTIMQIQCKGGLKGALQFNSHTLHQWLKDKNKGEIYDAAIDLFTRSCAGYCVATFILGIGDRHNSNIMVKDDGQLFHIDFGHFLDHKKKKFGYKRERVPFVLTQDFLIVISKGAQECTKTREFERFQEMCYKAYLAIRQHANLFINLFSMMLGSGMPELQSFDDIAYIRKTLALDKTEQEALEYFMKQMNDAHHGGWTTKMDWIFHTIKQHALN
T2 sequence (P27986 whole entry partner): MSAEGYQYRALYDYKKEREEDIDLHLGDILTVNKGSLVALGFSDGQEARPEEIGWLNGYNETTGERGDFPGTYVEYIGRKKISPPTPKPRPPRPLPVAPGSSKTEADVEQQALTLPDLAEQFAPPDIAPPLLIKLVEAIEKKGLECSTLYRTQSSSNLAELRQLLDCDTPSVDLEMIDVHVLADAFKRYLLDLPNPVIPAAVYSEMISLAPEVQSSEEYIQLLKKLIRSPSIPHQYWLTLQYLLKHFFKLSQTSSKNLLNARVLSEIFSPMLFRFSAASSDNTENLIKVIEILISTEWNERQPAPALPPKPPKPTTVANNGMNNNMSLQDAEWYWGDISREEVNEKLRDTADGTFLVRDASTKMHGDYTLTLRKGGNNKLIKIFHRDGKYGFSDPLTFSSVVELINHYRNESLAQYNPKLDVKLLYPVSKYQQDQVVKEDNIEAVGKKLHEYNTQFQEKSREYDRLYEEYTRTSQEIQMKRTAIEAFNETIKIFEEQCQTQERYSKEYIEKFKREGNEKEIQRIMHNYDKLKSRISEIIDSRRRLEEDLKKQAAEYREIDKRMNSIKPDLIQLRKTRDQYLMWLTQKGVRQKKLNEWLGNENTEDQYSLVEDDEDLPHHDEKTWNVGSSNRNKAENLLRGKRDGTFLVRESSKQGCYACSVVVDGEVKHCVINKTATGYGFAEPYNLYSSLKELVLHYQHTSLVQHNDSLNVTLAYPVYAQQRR

SMILES	IC50 (mTOR kinase)	IC50 (PC3 cells)	IC50 [1]
CN1CCN(C(=O)c2ccc(NC(=O)Nc3ccc(-c4nc(N5CCOCC5)c5ccc(-c6cncnc6)cc5n4)cc3)cc2)CC1 [Example 79, 1-[4-(4-methyl-piperazine-1-carbonyl)-phenyl]-3-[4-(4-morpholin-4-yl-7-pyrimidin-5-yl-quinazolin-2-yl)-phenyl]-urea]	< 0.05 µM	0.501 to 5 µM	0.201 to 10 µM
Cc1ccncc1-c1cnc2c(N3CCOCC3)nc(-c3ccc(NC(=O)Nc4ccc(C(=O)N(C)C)cc4)c(F)c3)nc2c1 [Example 116, 4-(3-(2-fluoro-4-(7-(4-methylpyridin-3-yl)-4-morpholino-pyrido[3,2-d]pyrimidin-2-yl)phenyl)ureido)-N,N-dimethyl-benzamide]	0.05 to 0.2 µM	0.501 to 5 µM	0.05 to 0.2 µM
CN(C)C(=O)c1ccc(NC(=O)Nc2ccc(-c3nc(N4CCOCC4)c4ncc(-c5cnn(C)c5)cc4n3)cc2F)cn1 [Example 124, 5-(3-(2-fluoro-4-(7-(1-methyl-1H-pyrazol-4-yl)-4-morpholino-pyrido[3,2-d]pyrimidin-2-yl)phenyl)ureido)-N,N-dimethylpicolinamide]	< 0.05 µM	0.201 to 10 µM	< 0.05 µM
Cc1noc(C)c1-c1cnc2c(N3CCOCC3)nc(-c3ccc(NC(=O)Nc4ccc(C(=O)N(C)C)cc4)c(F)c3)nc2c1 [Example 135, 4-(3-(4-(7-(3,5-dimethylisoxazol-4-yl)-4-morpholino-pyrido[3,2-d]pyrimidin-2-yl)-2-fluorophenyl)ureido)-N,N-dimethyl-benzamide]	< 0.05 µM	0.201 to 10 µM	< 0.05 µM
CC1CN(c2nc(-c3ccc(NC(=O)Nc4ccc(C(=O)N(C)C)cc4)cc3)nc3cc(-c4cncnc4)ccc23)CCO1 (stereo not drawn) [Example 138, N,N-dimethyl-4-(3-(4-(4-(2-methylmorpholino)-7-(pyrimidin-5-yl)quinazolin-2-yl)phenyl)ureido)-benzamide]	< 0.05 µM	0.201 to 10 µM	< 0.05 µM
Cc1noc(C)c1-c1cc2nc(-c3ccc(NC(=O)Nc4ccc(C(=O)N(C)C)cc4)cc3)nc(N3CCOCC3)c2cc1F [Example 143, 4-(3-(4-(7-(3,5-dimethylisoxazol-4-yl)-6-fluoro-4-morpholino-quinazolin-2-yl)phenyl)ureido)-N,N-dimethyl-benzamide]	< 0.05 µM	0.201 to 10 µM	0.05 to 0.2 µM
CN(C)C(=O)c1ccc(NC(=O)Nc2ccc(-c3nc(N4CCOCC4)c4ccc(-c5cnc(N(C)C)nc5)cc4n3)cc2)cc1 [Example 226, 4-(3-(4-(7-(2-(dimethylamino)pyrimidin-5-yl)-4-morpholino-quinazolin-2-yl)phenyl)ureido)-N,N-dimethyl-benzamide]	< 0.05 µM	0.201 to 10 µM	< 0.05 µM
CNC(=O)c1ccc(NC(=O)Nc2ccc(-c3nc(N4CCOCC4)c4ccc(-c5ccco5)cc4n3)cc2)cc1 [Example 233, 4-(3-(4-(7-(furan-2-yl)-4-morpholine-quinazolin-2-yl)phenyl)ureido)-N-methyl-benzamide]	0.05 to 0.2 µM	< 0.1 µM	< 0.05 µM
CN(C)C(=O)c1ccc(NC(=O)Nc2ccc(-c3nc(N4CCOCC4)c4ccc(-c5cncnc5)cc4n3)cc2)cc1F [Example 240, 2-fluoro-N,N-dimethyl-4-(3-(4-(4-morpholino-7-(pyrimidin-5-yl)quinazolin-2-yl)phenyl)ureido)-benzamide]	< 0.05 µM	0.201 to 10 µM	< 0.05 µM
CN(C)C(=O)c1ccc(NC(=O)Nc2ccc(-c3nc(N4CCOCC4)c4ccc(-c5cccc(S(C)(=O)=O)c5)cc4n3)c(F)c2)cc1 [Example 245, 4-(3-(3-fluoro-4-(7-(3-(methylsulfonyl)phenyl)-4-morpholino-quinazolin-2-yl)phenyl)ureido)-N,N-dimethyl-benzamide]	0.05 to 0.2 µM	0.201 to 10 µM	< 0.05 µM
CN(C)C(=O)c1ccc(NC(=O)Nc2ccc(-c3nc(N4CCOCC4)c4ncc(-c5cncnc5)cc4n3)c(F)c2)cc1 [Example 250, 4-(3-(3-fluoro-4-(4-morpholino-7-(pyrimidin-5-yl)pyrido[3,2-d]pyrimidin-2-yl)phenyl)ureido)-N,N-dimethyl-benzamide]	< 0.05 µM	0.201 to 10 µM	< 0.05 µM
CN(C)C(=O)c1ccc(NC(=O)Nc2ccc(-c3nc(N4CCOCC4)c4ccc(-c5cccnc5F)cc4n3)cc2)cc1F [Example 255, 2-fluoro-4-(3-(4-(7-(2-fluoropyridin-3-yl)-4-morpholino-quinazolin-2-yl)phenyl)ureido)-N,N-dimethyl-benzamide]	< 0.05 µM	0.201 to 10 µM	0.05 to 0.2 µM
CN(C)C(=O)c1ccc(NC(=O)Nc2ccc(-c3nc(N4CCOCC4)c4cc(F)c(-c5cncnc5)cc4n3)c(F)c2)cc1 [Example 256, 4-(3-(3-fluoro-4-(6-fluoro-4-morpholino-7-(pyrimidin-5-yl)quinazolin-2-yl)phenyl)ureido)-N,N-dimethyl-benzamide]	0.05 to 0.2 µM	0.201 to 10 µM	0.05 to 0.2 µM
COc1ncc(-c2ccc3c(N4CCOCC4)nc(-c4ccc(NC(=O)Nc5ccc(C(=O)N(C)C)c(F)c5)cc4)nc3c2)cn1 [Example 257, 2-fluoro-4-(3-(4-(7-(2-methoxypyrimidin-5-yl)-4-morpholino-quinazolin-2-yl)phenyl)ureido)-N,N-dimethyl-benzamide]	< 0.05 µM	0.201 to 10 µM	< 0.05 µM
COc1ccc(-c2ccc3c(N4CCOCC4)nc(-c4ccc(NC(=O)Nc5ccc(C(=O)N(C)C)c(F)c5)cc4)nc3c2)cn1 [Example 259, 2-fluoro-4-(3-(4-(7-(6-methoxypyridin-3-yl)-4-morpholino-quinazolin-2-yl)phenyl)ureido)-N,N-dimethyl-benzamide]	< 0.05 µM	0.201 to 10 µM	0.05 to 0.2 µM
CN(C)C(=O)c1ccc(NC(=O)Nc2ccc(-c3nc(N4CCOCC4)c4ccc(-c5cccnc5)cc4n3)cc2)cc1F [Example 260, 2-fluoro-N,N-dimethyl-4-(3-(4-(4-morpholino-7-(pyridin-3-yl)quinazolin-2-yl)phenyl)ureido)-benzamide]	< 0.05 µM	0.201 to 10 µM	< 0.05 µM
CN(C)C(=O)c1ccc(NC(=O)Nc2ccc(-c3nc(N4CCOCC4)c4ccc(-c5ccco5)cc4n3)cc2)cc1F [Example 265, 2-fluoro-4-(3-(4-(7-(furan-2-yl)-4-morpholino-quinazolin-2-yl)phenyl)ureido)-N,N-dimethyl-benzamide]	0.05 to 0.2 µM	< 0.1 µM	0.05 to 0.2 µM
CN(C)C(=O)c1ccc(NC(=O)Nc2ccc(-c3nc(N4CCOCC4)c4ccc(-c5ccc(CO)o5)cc4n3)c(F)c2)cc1 [Example 274, 4-(3-(3-fluoro-4-(7-(5-(hydroxymethyl)furan-2-yl)-4-morpholino-quinazolin-2-yl)phenyl)ureido)-N,N-dimethyl-benzamide]	0.05 to 0.2 µM	0.201 to 10 µM	< 0.05 µM
CC(O)c1ccc(-c2ccc3c(N4CCOCC4)nc(-c4ccc(NC(=O)Nc5ccc(C(=O)N(C)C)cc5)cc4F)nc3c2)o1 (stereo not drawn) [Example 275, 4-(3-(3-fluoro-4-(7-(5-(1-hydroxyethyl)furan-2-yl)-4-morpholino-quinazolin-2-yl)phenyl)ureido)-N,N-dimethyl-benzamide]	< 0.05 µM	0.201 to 10 µM	0.05 to 0.2 µM
CN(C)C(=O)c1ccc(NC(=O)Nc2ccc(-c3nc(N4CCOCC4)c4ccc(-c5cncnc5)cc4n3)c(F)c2F)cc1 [Example 280, 4-(3-(2,3-difluoro-4-(4-morpholino-7-(pyrimidin-5-yl)quinazolin-2-yl)phenyl)ureido)-N,N-dimethyl-benzamide]	< 0.05 µM	< 0.1 µM	0.05 to 0.2 µM
CN(C)C(=O)c1ccc(NC(=O)Nc2ccc(-c3nc(N4CCOCC4)c4ccc(-c5ccco5)cc4n3)c(F)c2F)cc1 [Example 282, -(3-(2,3-difluoro-4-(7-(furan-2-yl)-4-morpholino-quinazolin-2-yl)phenyl)ureido)-N,N-dimethyl-benzamide]	0.201 to 10 µM	< 0.1 µM	0.05 to 0.2 µM
